Patent publication US20140220094A1, “METHODS AND COMPOSITIONS FOR A LAPAROSCOPIC SURGERY” (Prelief Inc., priority 2009, published 2014)

Tested on: laparoscopic ports
Experiment: Laparoscopic cutaneous studies: treated vs untreated laparoscopic port sites
Assay type: in vivo, human
Settings: another patient, 10 days after the treatment
Description: Cellerity® 10 topical lotion has been used in single patient multiple sites laparoscopic procedure studies. The studies compared healing time, severity of scar formation and inflammation at laparoscopic ports with and without CGP treatment.
The treatment was started within 24 hours after the laparoscopic surgery. The patient was instructed to allow the applied lotion to dry completely before applying their clothes and not to wash the treatment area for two hours after the application. This procedure was performed twice a day for three full weeks. […] The untreated ports were grossly inflamed, had tissue necrosis at the incision site and desquamation of epithelium. It also remained inflamed and the staple sites were still prominent and erythematous. At the incision line, a glassy layer of fibroblastic scar tissue was present.
Steri-Strips to the left side of the incisions, and leaving the midline left untreated. […] The untreated midline scar remained as inflamed and delayed in the healing process by 3-4 weeks, because the inflamed situation must resolve before the healing can occur. That delay appeared to have allowed more fibroblastic growth in the untreated scar, than was present on the treated scars.

## calcium glycerophosphate [CGP]
Left and right sides treated
  edematous changes vs untreated midline incision: no edematous changes
  erythema vs untreated midline incision: less erythema
  inflammation vs untreated midline incision: substantially less inflammation
Treatment started 24 hours after surgery
  difference between direct application (right side) and application through Steri-Strips (left side): no difference
